Assays:
[1] = RPF 'is known'; cited from earlier work
[2] = Radical protection factor (RPF) by electron spin resonance (ESR) against a test radical; type: biochemical
Source text: S2=signal amplitude of the antioxidant.
As has already been described, the radical protection factor (RPF) determines the activity of a substance for binding free radicals against a test substance. This test substance consists of a highly reactive, semi-stable radical which reacts with all known antioxidation agents. Such radicals include nitroxides such as proxo (2.2,5.5-tetramethyl-1-dihydropyrrolinoxy-nitroxide), tempol (2.2,6.6-tetramethyl-1-piperidinoxy-4-ol-nitroxide), DTBN (di-tert-butyl-nitroxide or preferably DPPH (1.1-diphenyl-2-picryl-hydrazyl.
The RPF is measured in such a way that the signal amplitudes of the test radical created by electron spin resonance (ESR/EPR) are measured before and after mixing with an antioxidation agent/scavenger, and the RPF is calculated from this.
Ind. […] Here, based on the known concentration of the test substance (here: DPPH) or the number of its free radicals (radicals per ml), a signal amplitude S1 is measured using an ESR spectrometer. The test radical is dissolved in the same way as the antioxidation agent in a (e.g. 0.1 m) water/alcohol solution. Then the signal amplitude S2 of the antioxidation agent is measured. The normalised difference between the two signal amplitudes is the reduction factor RF RF=(S1-S2)/S1. The result of the radical reduction of the test substance RC×RF is normalised in relation to the quantity of the product input PI (mg/ml). Here, the RC is the quantity of the test substance, i.e. the known number of radicals in the test substance. The radical protection factor is calculated according to the following equation: […]
The radical protection factor can be determined using an ESR spectrometer (GALENUS GmbH, Berlin, Germany), and is a value for labelling products with regard to their ability to bind free radicals. The procedure is an in-vitro procedure, in which no individual properties of the user influence the antioxidants.

Compound	RPF known for standard antioxidation agents [1]	RPF (radical protection factor) ([2]; radical scavenger as such, ESR)	other results
Cc1c(C)c2c(c(C)c1O)CCC(C)(CCCC(C)CCCC(C)CCCC(C)C)O2 (racemic) [DL-α-tocopherol]	41200 ×10^14 radicals/mg	–	–
CC1=C(/C=C/C(C)=C/C=C/C(C)=C/CO)C(C)(C)CCC1 [all-trans-retinol]	827 ×10^14 radicals/mg	–	–
CC(=O)OC/C=C(C)/C=C/C=C(C)/C=C/C1=C(C)CCCC1(C)C [all-trans-retinolacetate]	196 ×10^14 radicals/mg	–	–
O=C1O[C@H]([C@@H](O)CO)C([O-])=C1OP(=O)([O-])[O-].[Na+].[Na+].[Na+] [natrium-ascorbyl-phosphate]	–	35000 ×10^14 radicals/mg	–
O=C(/C=C/c1ccc(O)c(O)c1)O[C@H](Cc1ccc(O)c(O)c1)C(=O)O [rosemary acid]	–	36000-68000 ×10^14 radicals/mg	–
O=C(OC[C@H]1O[C@@H](OC(=O)c2cc(O)c(O)c(OC(=O)c3cc(O)c(O)c(O)c3)c2)[C@H](OC(=O)c2cc(O)c(O)c(OC(=O)c3cc(O)c(O)c(O)c3)c2)[C@@H](OC(=O)c2cc(O)c(O)c(OC(=O)c3cc(O)c(O)c(O)c3)c2)[C@@H]1OC(=O)c1cc(O)c(O)c(OC(=O)c2cc(O)c(O)c(O)c2)c1)c1cc(O)c(O)c(OC(=O)c2cc(O)c(O)c(O)c2)c1 [tannic acid]	–	310000 ×10^14 radicals/mg	–
CC(=O)Oc1c(C)c(C)c2c(c1C)CCC(C)(CCC[C@H](C)CCC[C@H](C)CCCC(C)C)O2 (stereo partly drawn) [α-tocopherylacetate]	48 ×10^14 radicals/mg	–	–
cyclodextrines	–	–	RPF (radical protection factor) ([2]; unit not given): 0
